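Tested at 5 concentrations; 48 h exposure; 96-well plates; endpoints linearly interpolated, else capped at highest concentration. At the GI50, growth is halved. TGI is the concentration that stops growth completely.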
Key:
Test in all cases: NCI-60 cell line screen, 48 h
SNB-19 CNS = test system: SNB-19 CNS
NCI/ADR-RES ovarian = test system: NCI/ADR-RES ovarian
HOP-62 NSCLC = test system: HOP-62 NSCLC
MDA-MB-231 breast = test system: MDA-MB-231 breast
SK-MEL-2 melanoma = test system: SK-MEL-2 melanoma
SK-MEL-5 melanoma = test system: SK-MEL-5 melanoma
HT29 colon = test system: HT29 colon
NCI-H460 lung = test system: NCI-H460 lung
UACC-257 melanoma = test system: UACC-257 melanoma
K-562 leukemia = test system: K-562 leukemia
SF-295 CNS = test system: SF-295 CNS
RXF 393 renal = test system: RXF 393 renal
SF-268 CNS = test system: SF-268 CNS
MALME-3M melanoma = test system: MALME-3M melanoma
CAKI-1 renal = test system: CAKI-1 renal
A549 NSCLC = test system: A549 NSCLC
TK-10 renal = test system: TK-10 renal
OVCAR-8 ovarian = test system: OVCAR-8 ovarian
BT-549 breast = test system: BT-549 breast
SK-OV-3 ovarian = test system: SK-OV-3 ovarian
IGROV1 ovarian = test system: IGROV1 ovarian
MOLT-4 leukemia = test system: MOLT-4 leukemia
HS 578T breast = test system: HS 578T breast
SK-MEL-28 melanoma = test system: SK-MEL-28 melanoma
OVCAR-5 ovarian = test system: OVCAR-5 ovarian
HCC-2998 colon = test system: HCC-2998 colon
HL-60(TB) leukemia = test system: HL-60(TB) leukemia
T-47D breast = test system: T-47D breast
HCT-116 colon = test system: HCT-116 colon
COLO 205 colon = test system: COLO 205 colon
EKVX NSCLC = test system: EKVX NSCLC
M14 melanoma = test system: M14 melanoma
HOP-92 NSCLC = test system: HOP-92 NSCLC
SR leukemia = test system: SR leukemia
NCI-H226 lung = test system: NCI-H226 lung
ACHN renal = test system: ACHN renal
PC-3 prostate = test system: PC-3 prostate
RPMI-8226 leukemia = test system: RPMI-8226 leukemia
HCT-15 colon = test system: HCT-15 colon
MCF7 breast = test system: MCF7 breast
SF-539 CNS = test system: SF-539 CNS
UO-31 renal = test system: UO-31 renal
SW-620 colon = test system: SW-620 colon
MDA-MB-435 = test system: MDA-MB-435
SNB-75 CNS = test system: SNB-75 CNS
U251 CNS = test system: U251 CNS
A498 renal = test system: A498 renal
786-0 renal = test system: 786-0 renal
CCRF-CEM leukemia = test system: CCRF-CEM leukemia
UACC-62 melanoma = test system: UACC-62 melanoma
LOX IMVI melanoma = test system: LOX IMVI melanoma
DU-145 prostate = test system: DU-145 prostate
KM12 colon = test system: KM12 colon
OVCAR-3 ovarian = test system: OVCAR-3 ovarian
NCI-H23 lung = test system: NCI-H23 lung
OVCAR-4 ovarian = test system: OVCAR-4 ovarian
NCI-H522 lung = test system: NCI-H522 lung

Question: Which results are given for O=C(NCCc1nccs1)c1cnc2c(S)cccc2c1?
Answer: GI50 (SNB-19 CNS): 3.41 µM; TGI (SNB-19 CNS): 33.1 µM; GI50 (NCI/ADR-RES ovarian): 2.97 µM; TGI (NCI/ADR-RES ovarian): > 100 µM; GI50 (HOP-62 NSCLC): 4.13 µM; TGI (HOP-62 NSCLC): 20.9 µM; GI50 (MDA-MB-231 breast): 3.33 µM; TGI (MDA-MB-231 breast): 56.4 µM; GI50 (SK-MEL-2 melanoma): 3.57 µM; TGI (SK-MEL-2 melanoma): 26.5 µM; GI50 (SK-MEL-5 melanoma): 3.2 µM; TGI (SK-MEL-5 melanoma): 16 µM; GI50 (HT29 colon): 4.34 µM; TGI (HT29 colon): 37 µM; GI50 (NCI-H460 lung): 0.685 µM; TGI (NCI-H460 lung): 11.4 µM; GI50 (UACC-257 melanoma): 3.77 µM; TGI (UACC-257 melanoma): 15.3 µM; GI50 (K-562 leukemia): 0.98 µM; TGI (K-562 leukemia): > 100 µM; GI50 (SF-295 CNS): 2.8 µM; TGI (SF-295 CNS): 17.1 µM; GI50 (RXF 393 renal): 3.07 µM; TGI (RXF 393 renal): 9.29 µM; GI50 (SF-268 CNS): 3.66 µM; TGI (SF-268 CNS): 27.1 µM; GI50 (MALME-3M melanoma): 4.03 µM; TGI (MALME-3M melanoma): 52.4 µM; GI50 (CAKI-1 renal): 3.22 µM; TGI (CAKI-1 renal): 37.4 µM; GI50 (A549 NSCLC): 3.18 µM; TGI (A549 NSCLC): 13.3 µM; GI50 (TK-10 renal): 5.8 µM; TGI (TK-10 renal): 19.5 µM; GI50 (OVCAR-8 ovarian): 4.95 µM; TGI (OVCAR-8 ovarian): 57.4 µM; GI50 (BT-549 breast): 2.61 µM; TGI (BT-549 breast): > 100 µM; GI50 (SK-OV-3 ovarian): 3.56 µM; TGI (SK-OV-3 ovarian): 15 µM; GI50 (IGROV1 ovarian): 1.96 µM; TGI (IGROV1 ovarian): 24.7 µM; GI50 (MOLT-4 leukemia): 1.14 µM; TGI (MOLT-4 leukemia): > 100 µM; GI50 (HS 578T breast): 6.28 µM; TGI (HS 578T breast): 80.5 µM; GI50 (SK-MEL-28 melanoma): 3.5 µM; TGI (SK-MEL-28 melanoma): > 100 µM; GI50 (OVCAR-5 ovarian): 10 µM; TGI (OVCAR-5 ovarian): 41.6 µM; GI50 (HCC-2998 colon): 10.5 µM; TGI (HCC-2998 colon): 29.1 µM; GI50 (HL-60(TB) leukemia): 10.7 µM; TGI (HL-60(TB) leukemia): 70 µM; GI50 (T-47D breast): 2.37 µM; TGI (T-47D breast): 62.6 µM; GI50 (HCT-116 colon): 1.13 µM; TGI (HCT-116 colon): 10.2 µM; GI50 (COLO 205 colon): 1.56 µM; TGI (COLO 205 colon): 3.75 µM; GI50 (EKVX NSCLC): 3.1 µM; TGI (EKVX NSCLC): 38.2 µM; GI50 (M14 melanoma): 3.5 µM; TGI (M14 melanoma): 38.6 µM; GI50 (HOP-92 NSCLC): 19.8 µM; TGI (HOP-92 NSCLC): 40.8 µM; GI50 (SR leukemia): 0.677 µM; TGI (SR leukemia): > 100 µM; GI50 (NCI-H226 lung): 5.7 µM; TGI (NCI-H226 lung): 21.4 µM; GI50 (ACHN renal): 3.36 µM; TGI (ACHN renal): 14.1 µM; GI50 (PC-3 prostate): 4.39 µM; TGI (PC-3 prostate): 26.6 µM; GI50 (RPMI-8226 leukemia): 4.15 µM; TGI (RPMI-8226 leukemia): > 100 µM; GI50 (HCT-15 colon): 3.49 µM; TGI (HCT-15 colon): 88.6 µM; GI50 (MCF7 breast): 1.02 µM; TGI (MCF7 breast): 37.5 µM; GI50 (SF-539 CNS): 4.17 µM; TGI (SF-539 CNS): 42.7 µM; GI50 (UO-31 renal): 3.26 µM; TGI (UO-31 renal): 16 µM; GI50 (SW-620 colon): 3.62 µM; TGI (SW-620 colon): 28.7 µM; GI50 (MDA-MB-435): 3.85 µM; TGI (MDA-MB-435): 53.5 µM; GI50 (SNB-75 CNS): 2.78 µM; TGI (SNB-75 CNS): 17.6 µM; GI50 (U251 CNS): 2.53 µM; TGI (U251 CNS): 16.7 µM; GI50 (A498 renal): 4.59 µM; TGI (A498 renal): 16.7 µM; GI50 (786-0 renal): 5.33 µM; TGI (786-0 renal): 36 µM; GI50 (CCRF-CEM leukemia): 1.77 µM; TGI (CCRF-CEM leukemia): > 100 µM; GI50 (UACC-62 melanoma): 2.68 µM; TGI (UACC-62 melanoma): 24.1 µM; GI50 (LOX IMVI melanoma): 2.35 µM; TGI (LOX IMVI melanoma): 92.8 µM; GI50 (DU-145 prostate): 3.27 µM; TGI (DU-145 prostate): 13.7 µM; GI50 (KM12 colon): 2.88 µM; TGI (KM12 colon): 17.8 µM; GI50 (OVCAR-3 ovarian): 2.47 µM; TGI (OVCAR-3 ovarian): 9.21 µM; GI50 (NCI-H23 lung): 3.91 µM; TGI (NCI-H23 lung): > 100 µM; GI50 (OVCAR-4 ovarian): 2.72 µM; TGI (OVCAR-4 ovarian): 34 µM

Question: C#CCNC(CCCN=C(N)N)C(=O)O (configuration not stated) was tested. Which TGI (SNB-19 CNS) did it give?
Answer: > 100 µM

Question: What about the TGI (NCI/ADR-RES ovarian) of the same molecule?
Answer: > 100 µM

Question: And the TGI (HOP-62 NSCLC)?
Answer: > 100 µM

Question: And the TGI (MDA-MB-231 breast)?
Answer: > 100 µM

Question: And the TGI (SK-MEL-2 melanoma)?
Answer: > 100 µM

Question: And the TGI (SK-MEL-5 melanoma)?
Answer: > 100 µM

Question: And the TGI (HT29 colon)?
Answer: > 100 µM

Question: And the TGI (NCI-H460 lung)?
Answer: > 100 µM

Question: What about the TGI (UACC-257 melanoma) of the same molecule?
Answer: > 100 µM

Question: What about the TGI (K-562 leukemia) of the same molecule?
Answer: > 100 µM

Question: What about the TGI (SF-295 CNS) of the same molecule?
Answer: > 100 µM

Question: What about the TGI (RXF 393 renal) of the same molecule?
Answer: > 100 µM

Question: And the TGI (SF-268 CNS)?
Answer: > 100 µM

Question: What about the TGI (MALME-3M melanoma) of the same molecule?
Answer: > 100 µM

Question: What about the TGI (CAKI-1 renal) of the same molecule?
Answer: > 100 µM

Question: What about the TGI (A549 NSCLC) of the same molecule?
Answer: > 100 µM

Question: And the TGI (TK-10 renal)?
Answer: > 100 µM

Question: And the TGI (OVCAR-8 ovarian)?
Answer: > 100 µM

Question: What about the TGI (BT-549 breast) of the same molecule?
Answer: > 100 µM

Question: What about the TGI (NCI-H522 lung) of the same molecule?
Answer: > 100 µM

Question: What about the TGI (SK-OV-3 ovarian) of the same molecule?
Answer: > 100 µM

Question: And the TGI (IGROV1 ovarian)?
Answer: > 100 µM

Question: And the TGI (MOLT-4 leukemia)?
Answer: > 100 µM

Question: What about the TGI (HS 578T breast) of the same molecule?
Answer: > 100 µM

Question: And the TGI (SK-MEL-28 melanoma)?
Answer: > 100 µM

Question: What about the TGI (OVCAR-5 ovarian) of the same molecule?
Answer: > 100 µM

Question: And the TGI (HCC-2998 colon)?
Answer: > 100 µM

Question: And the TGI (HL-60(TB) leukemia)?
Answer: > 100 µM

Question: And the TGI (T-47D breast)?
Answer: > 100 µM

Question: And the TGI (HCT-116 colon)?
Answer: > 100 µM

Question: What about the TGI (COLO 205 colon) of the same molecule?
Answer: > 100 µM

Question: And the TGI (EKVX NSCLC)?
Answer: > 100 µM

Question: And the TGI (M14 melanoma)?
Answer: > 100 µM

Question: What about the TGI (HOP-92 NSCLC) of the same molecule?
Answer: > 100 µM

Question: What about the TGI (SR leukemia) of the same molecule?
Answer: > 100 µM

Question: What about the TGI (NCI-H226 lung) of the same molecule?
Answer: > 100 µM

Question: And the TGI (ACHN renal)?
Answer: > 100 µM

Question: What about the TGI (PC-3 prostate) of the same molecule?
Answer: > 100 µM

Question: What about the TGI (RPMI-8226 leukemia) of the same molecule?
Answer: > 100 µM

Question: What about the TGI (HCT-15 colon) of the same molecule?
Answer: > 100 µM

Question: And the TGI (UO-31 renal)?
Answer: > 100 µM

Question: What about the TGI (SW-620 colon) of the same molecule?
Answer: > 100 µM

Question: And the TGI (MDA-MB-435)?
Answer: > 100 µM

Question: What about the TGI (SNB-75 CNS) of the same molecule?
Answer: > 100 µM

Question: And the TGI (U251 CNS)?
Answer: > 100 µM

Question: And the TGI (A498 renal)?
Answer: > 100 µM

Question: What about the TGI (786-0 renal) of the same molecule?
Answer: > 100 µM

Question: And the TGI (CCRF-CEM leukemia)?
Answer: > 100 µM

Question: And the TGI (UACC-62 melanoma)?
Answer: > 100 µM

Question: What about the TGI (LOX IMVI melanoma) of the same molecule?
Answer: > 100 µM

Question: What about the TGI (DU-145 prostate) of the same molecule?
Answer: > 100 µM

Question: What about the TGI (KM12 colon) of the same molecule?
Answer: > 100 µM

Question: What about the TGI (OVCAR-3 ovarian) of the same molecule?
Answer: > 100 µM

Question: And the TGI (NCI-H23 lung)?
Answer: > 100 µM

Question: And the TGI (OVCAR-4 ovarian)?
Answer: > 100 µM
